Reference: patent publication US20110245179A1, “Composition for Prevention or Treatment of Heart Failure” (priority 2008, published 2011)

Experiments:
PKCδ = PKCδ (Homo sapiens, UniProt Q05655); details: cited from earlier work
PKCβ = PKCβ (Homo sapiens, UniProt P05771); details: cited from earlier work
PKCζ = biological target: T1, PKCζ (Homo sapiens, UniProt Q05513); details: cited from earlier work
T1 sequence (Q05513 1-592): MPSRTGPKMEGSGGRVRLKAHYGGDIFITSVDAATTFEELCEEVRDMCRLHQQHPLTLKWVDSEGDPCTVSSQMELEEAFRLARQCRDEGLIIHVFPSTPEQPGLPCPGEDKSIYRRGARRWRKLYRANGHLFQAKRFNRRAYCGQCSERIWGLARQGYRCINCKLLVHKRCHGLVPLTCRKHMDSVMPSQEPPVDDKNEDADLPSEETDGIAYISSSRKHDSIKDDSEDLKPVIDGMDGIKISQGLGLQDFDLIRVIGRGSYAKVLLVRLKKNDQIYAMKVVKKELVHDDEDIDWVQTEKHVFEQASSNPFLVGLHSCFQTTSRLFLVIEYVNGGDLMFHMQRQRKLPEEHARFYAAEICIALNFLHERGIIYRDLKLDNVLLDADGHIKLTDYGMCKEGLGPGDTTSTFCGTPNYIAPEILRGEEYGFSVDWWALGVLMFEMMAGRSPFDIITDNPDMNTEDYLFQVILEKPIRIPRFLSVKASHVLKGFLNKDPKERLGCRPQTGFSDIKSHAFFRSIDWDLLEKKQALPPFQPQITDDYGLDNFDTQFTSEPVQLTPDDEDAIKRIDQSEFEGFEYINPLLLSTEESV

cardiac myocytes = assay: Measurement of myocardial contractility (video-based edge detection); type: cell-based, Sprague-Dawley (SD) rat; details: 100 nM for 30 minutes
Text: The sequence of a peptide inhibitor was designed based on the experiment of Daria Mochly-Rosen^11-13. The amino acid sequences of the protein kinase C ζ (PKCζ) inhibitor are described as SEQ ID NO: 1 and SEQ ID NO: 2. They are called the pseudosubstrate region. In contrast, the amino acid sequence of the PKCα inhibitor is QLVIAN. Each peptide inhibitor is linked at the amino-end with the TAT peptide YGRKKRRQRRR via the GGG bridge. As a normal group for comparison, a peptide comprising the TAT amino acid sequence was used. Cardiac myocytes isolated from 10-week-old Sprague-Dawley (SD) rat were used to test the efficiency of the peptide inhibitor. […]
The cardiac myocytes were isolated based on the modification of the Ren's method^14. 10-week-old male SD rats (250-300 g) were used for the experiment. After injecting heparin (50 unit), the test animal was anesthetized with isoflurane and the heart was taken out immediately. The heart was connected to a pump and Tyrode's buffer [137 mM NaCl, 5.4 mM KCl, 1 mM MgCl2, 10 mM glucose, 10 mM HEPES, 10 mM 2,3-butanedione monoxime and 5 mM taurine (Sigma), pH 7.4] at 37° C. was supplied through the coronary artery. After removing blood from the heart by pumping for 5 minutes, intercellular adhesion molecules were digested by perfusing enzyme solution [collagenase type B (0.35 U/mL, Roche), hyaluronidase (0.1 mg/mL, Sigma)] through the coronary artery. After sufficient digestion through perfusion for 20 minutes, the heart was stabilized and protected from the enzymes in 0.5% BSA solution. In all the experiments, only the rod-shaped, healthy cardiac myocytes with a distinct striation pattern were used.
The entire culture procedure was carried out in a class II flow hood. Culture dishes were precoated for 1 hour with 40 µg/mL mouse laminin (BD Biosciences) at room temperature. The isolated cardiac myocytes were cultured in Dulbecco's minimal essential medium (HyClone) containing 50 units/mL penicillin, 50 μg/mL streptomycin, 5 mM taurine, […] and […]. The cardiac myocytes were stabilized for 2 hours in a 5% CO2 incubator at 37° C., and then myocardial contractility was measured.
Myocardial contractility was measured using a video-based edge detection system (IonOptix; Milton, Mass.)^15. The cultured cardiac myocytes were placed on a over slip and observed under an inverted microscope (Nikon Eclipse TE-100F). To the cardiac myocytes, Tyrode's buffer (137 mM NaCl, 5.4 mM KCl, 1 mM MgCl2, 10 mM glucose and 10 mM HEPES, pH 7.4) was continuously supplied (at 37° C., at a rate of ˜1 mL/min). The cells were stimulated with a voltage of 30 V at 1 Hz. A STIM-AT stimulator/thermostat was used. […] The motion was recorded at every 8.3 ms. The recorded motion of the cardiac myocytes was analyzed with the soft-edge software (IonOptix).

Sequence of PKCδ (Q05655 whole entry): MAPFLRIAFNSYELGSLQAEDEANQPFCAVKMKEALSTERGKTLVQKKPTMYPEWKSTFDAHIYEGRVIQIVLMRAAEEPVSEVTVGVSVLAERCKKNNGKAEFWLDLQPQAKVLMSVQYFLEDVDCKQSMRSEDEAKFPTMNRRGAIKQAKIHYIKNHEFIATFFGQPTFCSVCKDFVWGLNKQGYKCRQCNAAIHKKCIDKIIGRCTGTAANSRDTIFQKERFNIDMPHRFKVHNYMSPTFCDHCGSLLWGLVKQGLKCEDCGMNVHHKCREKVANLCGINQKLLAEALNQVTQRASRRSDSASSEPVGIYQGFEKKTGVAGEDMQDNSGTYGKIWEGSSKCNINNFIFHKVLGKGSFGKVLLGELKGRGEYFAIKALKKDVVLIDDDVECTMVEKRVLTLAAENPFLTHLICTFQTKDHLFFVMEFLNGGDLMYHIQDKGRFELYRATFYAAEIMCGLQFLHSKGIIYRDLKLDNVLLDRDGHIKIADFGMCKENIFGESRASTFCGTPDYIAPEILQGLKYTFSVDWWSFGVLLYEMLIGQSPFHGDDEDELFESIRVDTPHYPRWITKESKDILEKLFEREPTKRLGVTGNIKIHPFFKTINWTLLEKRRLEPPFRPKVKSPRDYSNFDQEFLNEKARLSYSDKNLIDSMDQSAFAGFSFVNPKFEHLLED
Sequence of PKCβ (P05771 whole entry, species assumed): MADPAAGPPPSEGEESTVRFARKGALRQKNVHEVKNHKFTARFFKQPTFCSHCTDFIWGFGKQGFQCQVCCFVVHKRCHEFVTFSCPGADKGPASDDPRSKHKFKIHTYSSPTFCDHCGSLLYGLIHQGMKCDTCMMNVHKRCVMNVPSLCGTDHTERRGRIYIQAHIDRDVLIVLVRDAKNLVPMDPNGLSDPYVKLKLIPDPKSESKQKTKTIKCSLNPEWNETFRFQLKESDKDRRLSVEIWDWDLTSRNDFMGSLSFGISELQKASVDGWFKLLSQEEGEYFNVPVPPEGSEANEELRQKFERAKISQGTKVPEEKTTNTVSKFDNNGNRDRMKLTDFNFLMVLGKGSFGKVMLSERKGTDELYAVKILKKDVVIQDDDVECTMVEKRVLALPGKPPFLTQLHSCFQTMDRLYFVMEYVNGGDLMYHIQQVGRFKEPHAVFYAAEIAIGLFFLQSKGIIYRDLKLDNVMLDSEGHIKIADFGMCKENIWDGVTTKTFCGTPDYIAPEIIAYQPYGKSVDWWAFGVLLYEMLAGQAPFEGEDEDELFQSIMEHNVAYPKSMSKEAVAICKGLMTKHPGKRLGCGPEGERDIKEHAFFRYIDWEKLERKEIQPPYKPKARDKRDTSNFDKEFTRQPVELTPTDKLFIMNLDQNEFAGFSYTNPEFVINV

Compound	IC50 (PKCδ) [µM]	IC50 (PKCβ) [µM]	increase of maximal rate of contraction (cardiac myocytes) [times]	increase of maximal rate of relaxation (cardiac myocytes) [times]	increased maximal myocardial contractility as compared to the normal group (cardiac myocytes)	further results
CCOC(=O)c1c(NC(C)=O)sc(/C(C)=N/O)c1-c1ccccc1 [Chemical Formula II, ethyl (5E)-2-acetylimino-5-[1-(hydroxyamino)ethylidene]-4-phenyl-thiophene-3-carboxylate]	> 100	> 100	–	–	–	–
CN1CCN(Cc2c3ccccc3cc3ccccc23)CC1 [Chemical Formula III, 1-(anthracen-9-ylmethyl)-4-methyl-piperazine]	> 100	50	–	–	–	IC50 (PKCζ): 25 µM
CCOC(=O)c1c(NC(=S)N2CCN(S(C)(=O)=O)CC2)sc(C)c1-c1ccccc1 [Chemical Formula IV]	–	–	–	–	–	inhibitory effect relative to that of the compound of Chemical Formula II (PKCζ; tested at 100 μM): about 1.2 times
CN1CCN(c2cccc3[nH]c(-c4n[nH]c5cc(-c6ccc(N)cc6)ccc45)nc23)CC1 [Chemical Formula IX]	–	–	≥ 2	≥ 2	about 2.4 times	–
CN1CCN(c2cccc3[nH]c(-c4n[nH]c5cc(-c6ccc(CN)cc6)ccc45)nc23)CC1 [Chemical Formula X]	–	–	1.2	1.2	about 1.4 times	–
